Measurements reported in US11905254B1, “1-(3-chlorobenzylideneamino)-5,5-diphenylimidazolidine-2,4-dione as an antimicrobial compound” (KING FAISAL UNIVERSITY, priority 2023, dated 2024).

Experiments:
Format in all cases: cell-based
[1] = test system: Staphylococcus aureus; test: agar plate disc-diffusion, antibacterial activity by inhibition zone; conditions: nutrient agar, 37° C., 48 hours, DMSO control subtracted
Protocol: (§1) The agar plate disc-diffusion method was applied. […] The discs were then placed onto the surface of agar plates (nutrient agar for bacteria and Sabouraud's dextrose agar for fungi) seeded with the test organism. Each plate contained 15 mL of the agar medium, previously seeded with 0.2 mL of the broth culture of each organism pregrown for 18 hours. The plates were incubated at 37° C. for 48 hours, and 72 hours for fungi. The inhibition zones was measured in millimeter. Discs impregnated with DMSO were used as a control, and its inhibition zone was subtracted from the tested compound actual inhibition zone.
(§2) The results of the antimicrobial testing can be observed in Tables 1 and 2, below, with ciprofloxacin serving as a reference.

[2] = test system: Bacillus Cereus; test: as above; conditions: nutrient agar, 37° C., 48 hours, DMSO control subtracted
Protocol: as §1, §2

[3] = test system: Escherichia coli; test: as above; conditions: nutrient agar, 37° C., 48 hours, DMSO control subtracted
Protocol: as §1, §2

[4] = test system: Pseudomonas aeruginosa; test: as above; conditions: nutrient agar, 37° C., 48 hours, DMSO control subtracted
Protocol: as §1, §2

[5] = test system: Chrysosporium keratinophilum; test: agar plate disc-diffusion, antifungal activity by inhibition zone; conditions: Sabouraud's dextrose agar, 37° C., 72 hours, DMSO control subtracted
Protocol: as §1, §2

[6] = test system: Aspergillus flavus; test: as above; conditions: Sabouraud's dextrose agar, 37° C., 72 hours, DMSO control subtracted
Protocol: as §1, §2

[7] = test system: different microbes; test: antimicrobial testing, overall statement on Tables 1 and 2; conditions: summary of Tables 1 and 2, bacteria and fungi
Protocol: The agar plate disc-diffusion method was applied. Sterilized filter papers (6 mm in diameter) were wetted with 10 μL of a solution of 1-(3-chlorobenzylideneamino)-5,5-diphenylimidazolidine-2,4-dione (4) to be tested, containing 10 mg/mL in DMSO, and the discs were allowed to air dry. The discs were then placed onto the surface of agar plates (nutrient agar for bacteria and Sabouraud's dextrose agar for fungi) seeded with the test organism. Each plate contained 15 mL of the agar medium, previously seeded with 0.2 mL of the broth culture of each organism pregrown for 18 hours. The plates were incubated at 37° C. for 48 hours, and 72 hours for fungi. The inhibition zones was measured in millimeter. Discs impregnated with DMSO were used as a control, and its inhibition zone was subtracted from the tested compound actual inhibition zone.
The antibacterial activity was screened against gram positive bacteria namely Bacillus cereus and Staphylococcus aureus and gram-negative bacterial strains namely Pseudomonas aeruginosa and Escherichia coli, while the antifungal activity was screened against Aspergillus flavus and Chrysosporium keratinophilum.

[8] = A = concentration of comp. = 10,000 μL
[9] = B = concentration of comp. = 30.000 μL
[10] = C = concentration of comp. = 50,000 μL

SMILES | inhibition zone [1, 8] | inhibition zone [1, 9] | inhibition zone [1, 10] | inhibition zone [2, 8] | inhibition zone [2, 9] | inhibition zone [2, 10] | inhibition zone [3, 8] | inhibition zone [3, 9] | inhibition zone [3, 10] | inhibition zone [4, 8] | inhibition zone [4, 9] | inhibition zone [4, 10] | inhibition zone [5, 8] | inhibition zone [5, 9] | inhibition zone [5, 10] | inhibition zone [6, 8] | inhibition zone [6, 9] | inhibition zone [6, 10] | antimicrobial activities (in words) [7]
O=C(O)c1cn(C2CC2)c2cc(N3CCNCC3)c(F)cc2c1=O [Cip., ciprofloxacin, reference compound] | 43 millimeter | 44 millimeter | 53 millimeter | 29 millimeter | 30 millimeter | 42 millimeter | 30 millimeter | 39 millimeter | 60 millimeter | 29 millimeter | 30 millimeter | 53 millimeter | 29 millimeter | 30 millimeter | 53 millimeter | 29 millimeter | 30 millimeter | 42 millimeter | –
O=C1NC(=O)C(c2ccccc2)(c2ccccc2)N1/N=C/c1cccc(Cl)c1 [Compound 4, 1-(3-chlorobenzylideneamino)-5,5-diphenylimidazolidine-2,4-dione] | 24 millimeter | 30 millimeter | 40 millimeter | 26 millimeter | 28 millimeter | 39 millimeter | 24 millimeter | 30 millimeter | 46 millimeter | 23 millimeter | 24 millimeter | 42 millimeter | 24 millimeter | 25 millimeter | 41 millimeter | 20 millimeter | 24 millimeter | 35 millimeter | high antimicrobial activities
